These results are taken from patent US20220354818A1, “METHODS FOR TREATING BRAIN INJURY OR COGNITIVE DYSFUNCTION BY PHARMACOLOGICAL ENHANCMENT OF M-TYPE POTASSIUM ION CURRENTS IN NEURONS” (Advanced Neuroresearch Therapeutics LLC, priority 2019, published 2022).

“Also recorded” adds a separate entry of the source.

In one assay the test system is M-channels. Kind of assay: Voltage dependence of M-channels.
Assay [1] has as its system C57BL/6J mice subjected to controlled closed cortical impact (CCCI). The assay can be described thus: Post-traumatic seizures after CCCI blunt TBI, video/EEG monitoring. The format is in vivo, mouse. The note with it: RTG 1.2 mg/kg i.p. 30 minutes post-TBI, video/EEG three days starting 24 hours after injury. The source says: Male and female mice were used for all experiments performed, except for GFAP, Iba1 and Fluro-Jade B histology experiments and for PSVue794 and Evans Blues imaging.
Animals were divided randomly among cohorts so that each cage included animals from all treatments.
The CCCI model was used to generate reproducible moderate blunt brain injury. This model has the advantages of producing focal contusion in which the skull remains intact. CCCI can most closely simulate blunt-head traumas resulting from falls, physical violence, or motor vehicle accidents and particularly in rodent models often produces spontaneous seizures within 24 hours.
A single trauma per mouse was employed. CCCI was delivered by a pneumatic impact device (Leica Biosystems) following a protocol previously published. A cylindrical probe of 5 mm diameter was used to deliver a calibrated impact to the skull, 1 mm depth over the right parietal cortex and a small portion of the caudal end of the right frontal cortex, at a velocity of 4.5 m/s to produce a moderate TBI. […]
To quantify seizure frequency and determine seizure susceptibility, mice of each cohort were implanted with electroencephalogram (EEG) electrodes 24 hours after CCCI or Sham. […]
Computer-assisted cortical EEGs was recorded and reviewed for the presence of seizures and epileptiform spikes. […] Detected events were visually confirmed by blinded experimenters.

Assay [2] concerns mice subjected to CCCI, subthreshold pilocarpine. The assay can be described thus: Pilocarpine-induced seizure susceptibility after CCCI. The assay is classed as in vivo, mouse. The note with it: three subthreshold pilocarpine doses on fifth day after CCCI; RTG 1.2 mg/kg i.p. 30 min post-TBI. As to the method:
Pilocarpine is a cholinomimetic drug widely used as a chemo-convulsant in animal models to induce status epilepticus. To minimize pilocarpine-induced peripheral cholinergic effects and mortality, animals were pretreated with scopolamine methyl nitrate (i.p. 1 mg/kg; MP Biomedicals) 30 minutes prior to pilocarpine injection. Both drugs were diluted in sterile 0.9% (w/v) saline. Immediately after pilocarpine injection, cortical activity was monitored for 24 hours by video/EEG recording.

For the next assay, the system named is sympathetic neuron. The assay can be described thus: Action potential firing in a sympathetic neuron, current-clamp.
The test system of another assay is neurons. The assay can be described thus: Fluoro Jade B staining of neuronal cell death after CCCI. The assay is classed as in vivo, mouse. Particulars: six days after CCCI; RTG 30 minutes post-TBI. As to the method:
Flouro Jade B (FJB) staining was performed to assay neuronal cell death histologically and detect the degree of neurodegeneration six days after CCCI. Staining was performed as previously described.
Six days after CCCI, mice were euthanized via transcardial perfusion with PBS followed by 4% (w/v) paraformaldehyde (PFA). Brains were removed, post-fixed overnight in 4% PFA (Electron Microscopy Sciences), transferred into 30% (w/v) sucrose in PBS and kept at 4° C. for 3 days. […]
Ipsilateral cortical images (fluorescence images of FJB and counterstained DAPI) were taken by a Nikon Eclipse Ti with camera coolSNAP HQ^2 (confocal) microscope using a 20× objective (N.A. 0.75). Fluorescence excitation-emission for Fluoro Jade and DAPI were 470/40-500 and 350/50-460, respectively.
Cell count was obtained by nonbiased automatic quantification with ImageJ/FIJI (NIH, USA) particle analysis. […] After background subtraction and image threshold (1.05%), FIB positive cells were detected using the “analyze particles” (size: 20-100, circularity: 0.00-1.00) function of ImageJ. These parameters determined the pixel size and circularity of the acceptable ROIs and were used to identify cell bodies automatically.

A further assay concerns c-Fos. Kind of assay: c-Fos expression (FosTRAP mice) in hippocampal CA1 after blunt TBI. The assay is classed as in vivo, mouse. Particulars: tamoxifen 30 days after single blunt TBI; acute RTG treatment. The source says:
Transgenic “FosTRAP” mice were used to study neuronal activity in sub-cortical regions following blunt TBI (the CCCI model as described above). These mice express the fluorescent protein, tdTomato, under the control of the neuronal promoter c-Fos, an “early intermediate gene” transcriptional factor that correlates well with heavy neuronal activity. Accordingly, whenever neurons express c-Fos, tdTomato is also expressed, allowing for an optical reporter of prior neuronal activity.
Because these transgenic mice express tdTopmato via the tamoxifen-inducible Cre/IoxP system, mice were injected (i.p.) with tamoxifen (75 mg/kg) 30 days after a single blunt TBI (i.e., CCCI), and samples were collected 5 days after injection.
Slices (200 μm) of each collected sample were infused with 4% (w/v) PFA for 10 minutes at RT, washed 5× in PBS and blocked with 8% (v/v) donkey serum (Sigma-Aldrich) diluted in PBS, 0.1% (v/v) Triton X-100 (Sigma-Aldrich), and 0.1% (v/v) Tween 20 (Thermo Fisher Scientific). […] A Nikon Eclipse FN1 microscope with 10× and 40× Plan Fluor objectives was used for detection of fluorescence. […] Cell count was obtained by non-biased automatic quantification with ImageJ. […] ROIs were determined automatically using the “analyze particles” function of ImageJ, with size set to 200-8000 and circularity set to 0.00-1.00.

Text for sympathetic neuron: Various currents are applied in “current-clamp” mode 44 ranging from 50 pA to −100 pA, and the resulting AP firing recorded.

Consider `CCOC(=O)Nc1ccc(NCc2ccc(F)cc2)cc1N` [RTG, 2-amino-4-(4-fluorobenzylamino)-1-ethoxycarbonylaminobenzene], for which, in the assay on M-channels, the “voltage dependence of M-channels” value is “shifting the voltage dependence of M-channels towards more negative potentials”. Besides, the “mice displaying post-traumatic seizures” value in assay [1] is “no animal treated with RTG post-TBI displayed seizures and zero”. Also, in assay [2], the “pilocarpine-induced abnormal spike activity” value was “significant reduction of pilocarpine-induced abnormal spike activity”. Moreover, in the assay on sympathetic neuron, the “action potential firing in response to stimuli” value is listed as “Complete silencing of the neuron occurs”. For the same molecule, the “Fluoro Jade B labeling of neurons (neuronal death)” value with neurons is given as “significantly higher FJB staining as compared to TBI+RTG cortical slices; also recorded: labeling of brain neurons by FJB was minimal”. In addition, the “c-Fos expression, hippocampal CA1” value with c-Fos is listed as “significantly less c-Fos than the TBI cohort”.
